Results: the supplement of paper PMC11451515

Tested on: NOMO1
Assay: cell viability relative to DMSO control; higher = less cytotoxic
Conditions: 48 h
Summary of the method: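 NOMO1 or SEM cells were plated at 500 cells/well and P12-Ichikawa cells at 1000 cells/well in 1536-well plates (5 μl), after each leukemia line had been adapted for at least four passages in each medium. Pin dosing delivered library compounds in DMSO at 11 threefold concentrations, 47 μM to 0.79 nM. CellTiter-Glo One luminescence was read after 48 h at 37°C. Viability is reported as a per-plate percentage of DMSO wells, with cell-free wells as background.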

[1] = HPLM + 10% dialyzed FBS, 0.000781 µM
[2] = HPLM + 10% dialyzed FBS, 0.00234 µM
[3] = HPLM + 10% dialyzed FBS, 0.00702 µM
[4] = HPLM + 10% dialyzed FBS, 0.0211 µM
[5] = HPLM + 10% dialyzed FBS, 0.0632 µM
[6] = HPLM + 10% dialyzed FBS, 0.19 µM
[7] = HPLM + 10% dialyzed FBS, 0.569 µM
[8] = HPLM + 10% dialyzed FBS, 1.71 µM
[9] = HPLM + 10% dialyzed FBS, 5.12 µM
[10] = HPLM + 10% dialyzed FBS, 15.4 µM
[11] = HPLM + 10% dialyzed FBS, 46.1 µM
[12] = RPMI 5 mM glucose + 10% FBS, 0.000781 µM
[13] = RPMI 5 mM glucose + 10% FBS, 0.00234 µM
[14] = RPMI 5 mM glucose + 10% FBS, 0.00702 µM
[15] = RPMI 5 mM glucose + 10% FBS, 0.0211 µM
[16] = RPMI 5 mM glucose + 10% FBS, 0.0632 µM
[17] = RPMI 5 mM glucose + 10% FBS, 0.19 µM
[18] = RPMI 5 mM glucose + 10% FBS, 0.569 µM
[19] = RPMI 5 mM glucose + 10% FBS, 1.71 µM
[20] = RPMI 5 mM glucose + 10% FBS, 5.12 µM
[21] = RPMI 5 mM glucose + 10% FBS, 15.4 µM
[22] = RPMI 5 mM glucose + 10% FBS, 46.1 µM
[23] = RPMI 5 mM glucose + 10% dialyzed FBS, 0.000781 µM
[24] = RPMI 5 mM glucose + 10% dialyzed FBS, 0.00234 µM
[25] = RPMI 5 mM glucose + 10% dialyzed FBS, 0.00702 µM
[26] = RPMI 5 mM glucose + 10% dialyzed FBS, 0.0211 µM
[27] = RPMI 5 mM glucose + 10% dialyzed FBS, 0.0632 µM
[28] = RPMI 5 mM glucose + 10% dialyzed FBS, 0.19 µM
[29] = RPMI 5 mM glucose + 10% dialyzed FBS, 0.569 µM
[30] = RPMI 5 mM glucose + 10% dialyzed FBS, 1.71 µM
[31] = RPMI 5 mM glucose + 10% dialyzed FBS, 5.12 µM
[32] = RPMI 5 mM glucose + 10% dialyzed FBS, 15.4 µM
[33] = RPMI 5 mM glucose + 10% dialyzed FBS, 46.1 µM

CNC1CCC(N(Cc2cccc(-c3ccncc3)c2)C(=O)c2sc3ccccc3c2Cl)CC1 (stereo unspecified)
cell viability [1]: 74.1%
cell viability [2]: 92.9%
cell viability [3]: 104%
cell viability [4]: 113%
cell viability [5]: 107%
cell viability [6]: 99%
cell viability [7]: 101%
cell viability [8]: 36.1%
cell viability [9]: 6.61%
cell viability [10]: 7.33%
cell viability [11]: 1.5%
cell viability [12]: 90.8%
cell viability [13]: 85.3%
cell viability [14]: 85.5%
cell viability [15]: 93%
cell viability [16]: 86%
cell viability [17]: 90.6%
cell viability [18]: 92.4%
cell viability [19]: 87.7%
cell viability [20]: 11.3%
cell viability [21]: 5.87%
cell viability [22]: 1.62%
cell viability [23]: 79.3%
cell viability [24]: 88.3%
cell viability [25]: 93.2%
cell viability [26]: 87%
cell viability [27]: 84.7%
cell viability [28]: 97.8%
cell viability [29]: 95.9%
cell viability [30]: 102%
cell viability [31]: 55%
cell viability [32]: 60.4%
cell viability [33]: 1.53%

CC(=O)O.Cc1c(-c2ccc(O)cc2)n(Cc2ccc(OCCN3CCCCCC3)cc2)c2ccc(O)cc12
cell viability [1]: 95.5%
cell viability [2]: 106%
cell viability [3]: 92.7%
cell viability [4]: 95.6%
cell viability [5]: 89.6%
cell viability [6]: 102%
cell viability [7]: 111%
cell viability [8]: 103%
cell viability [9]: 106%
cell viability [10]: 94.1%
cell viability [11]: 92.5%
cell viability [12]: 86.3%
cell viability [13]: 103%
cell viability [14]: 92.3%
cell viability [15]: 92.7%
cell viability [16]: 88.5%
cell viability [17]: 105%
cell viability [18]: 92.3%
cell viability [19]: 87.5%
cell viability [20]: 96.5%
cell viability [21]: 93.9%
cell viability [22]: 88.6%
cell viability [23]: 97.5%
cell viability [24]: 97.9%
cell viability [25]: 91.4%
cell viability [26]: 96%
cell viability [27]: 99.2%
cell viability [28]: 107%
cell viability [29]: 103%
cell viability [30]: 98.1%
cell viability [31]: 102%
cell viability [32]: 101%
cell viability [33]: 86.7%

COC[C@H]1OC(=O)C2=COC3=C2[C@@]1(C)\C4=C(C5CCC(=O)[C@@]5(C)C[C@H]4OC(C)=O)/C3=O (stereo partly specified)
cell viability [1]: 84.5%
cell viability [2]: 111%
cell viability [3]: 107%
cell viability [4]: 36.5%
cell viability [5]: 111%
cell viability [6]: 114%
cell viability [7]: 104%
cell viability [8]: 114%
cell viability [9]: 108%
cell viability [10]: 95%
cell viability [11]: 102%
cell viability [12]: 90.1%
cell viability [13]: 92%
cell viability [14]: 92.2%
cell viability [15]: 19.6%
cell viability [16]: 98.7%
cell viability [17]: 98.3%
cell viability [18]: 100%
cell viability [19]: 91.8%
cell viability [20]: 93.6%
cell viability [21]: 91.8%
cell viability [22]: 107%
cell viability [23]: 82%
cell viability [24]: 85.2%
cell viability [25]: 95.7%
cell viability [26]: 47.2%
cell viability [27]: 93.3%
cell viability [28]: 94.1%
cell viability [29]: 90.9%
cell viability [30]: 94.6%
cell viability [31]: 91.5%
cell viability [32]: 87.5%
cell viability [33]: 87.6%

CCc1cncnc1N1CCN(Cc2nc3cc(C(F)(F)F)ccc3[nH]2)CC1
cell viability [1]: 105%
cell viability [2]: 114%
cell viability [3]: 114%
cell viability [4]: 98.5%
cell viability [5]: 108%
cell viability [6]: 97.7%
cell viability [7]: 97.6%
cell viability [8]: 94%
cell viability [9]: 107%
cell viability [10]: 92%
cell viability [11]: 64.2%
cell viability [12]: 95.4%
cell viability [13]: 87.8%
cell viability [14]: 99.5%
cell viability [15]: 93.1%
cell viability [16]: 90.8%
cell viability [17]: 93.4%
cell viability [18]: 90.1%
cell viability [19]: 90.1%
cell viability [20]: 81.3%
cell viability [21]: 79.9%
cell viability [22]: 74.7%
cell viability [23]: 95.8%
cell viability [24]: 82.6%
cell viability [25]: 93.8%
cell viability [26]: 100%
cell viability [27]: 95.3%
cell viability [28]: 85.5%
cell viability [29]: 88.8%
cell viability [30]: 97.4%
cell viability [31]: 88.6%
cell viability [32]: 75.8%
cell viability [33]: 70.3%

COC(=O)Nc1nc2cc(C(=O)c3cccs3)ccc2[nH]1
cell viability [1]: 106%
cell viability [2]: 88.5%
cell viability [3]: 113%
cell viability [4]: 81.8%
cell viability [5]: 43.6%
cell viability [6]: 34.2%
cell viability [7]: 32.3%
cell viability [8]: 44%
cell viability [9]: 57.7%
cell viability [10]: 57.3%
cell viability [11]: 53.1%
cell viability [23]: 98.2%
cell viability [24]: 113%
cell viability [25]: 129%
cell viability [26]: 101%
cell viability [27]: 53.6%
cell viability [28]: 28.1%
cell viability [29]: 33.7%
cell viability [30]: 36.1%
cell viability [31]: 36.2%
cell viability [32]: 40.5%
cell viability [33]: 42.2%

COc1cc2c(cc1-c1c(C)noc1C)ncc1[nH]c(=O)n([C@H](C)c3ccccn3)c12
cell viability [12]: 122%
cell viability [13]: 110%
cell viability [14]: 114%
cell viability [15]: 115%
cell viability [16]: 111%
cell viability [17]: 99.8%
cell viability [18]: 108%
cell viability [19]: 98.2%
cell viability [20]: 30.8%
cell viability [21]: 30.5%
cell viability [22]: 22%
cell viability [23]: 114%
cell viability [24]: 124%
cell viability [25]: 98.3%
cell viability [26]: 118%
cell viability [27]: 124%
cell viability [28]: 117%
cell viability [29]: 118%
cell viability [30]: 102%
cell viability [31]: 30.1%
cell viability [32]: 35.6%
cell viability [33]: 22.7%

CCC(C)SSc1ncc[nH]1 (stereo unspecified)
cell viability [1]: 88%
cell viability [2]: 85.5%
cell viability [3]: 94.8%
cell viability [4]: 103%
cell viability [5]: 102%
cell viability [6]: 105%
cell viability [7]: 90.3%
cell viability [8]: 87.4%
cell viability [9]: 104%
cell viability [10]: 53.6%
cell viability [11]: 12.6%
cell viability [12]: 86%
cell viability [13]: 93.9%
cell viability [14]: 97.7%
cell viability [15]: 98.2%
cell viability [16]: 92.5%
cell viability [17]: 93.1%
cell viability [18]: 96.5%
cell viability [19]: 104%
cell viability [20]: 104%
cell viability [21]: 67.5%
cell viability [22]: 13.6%
cell viability [23]: 89%
cell viability [24]: 97.6%
cell viability [25]: 89.2%
cell viability [26]: 101%
cell viability [27]: 94.5%
cell viability [28]: 94.5%
cell viability [29]: 94.8%
cell viability [30]: 105%
cell viability [31]: 101%
cell viability [32]: 81.8%
cell viability [33]: 9.7%

CCN(CC)CC#CCOC(=O)C(O)(c1ccccc1)C1CCCCC1 (stereo unspecified)
cell viability [12]: 133%
cell viability [13]: 115%
cell viability [14]: 122%
cell viability [15]: 113%
cell viability [16]: 138%
cell viability [17]: 127%
cell viability [18]: 117%
cell viability [19]: 137%
cell viability [20]: 120%
cell viability [21]: 125%
cell viability [22]: 117%
cell viability [23]: 128%
cell viability [24]: 121%
cell viability [25]: 120%
cell viability [26]: 124%
cell viability [27]: 140%
cell viability [28]: 123%
cell viability [29]: 140%
cell viability [30]: 132%
cell viability [31]: 135%
cell viability [32]: 134%
cell viability [33]: 120%
